The values below come from US4310682A, “Halo-salicylanilide” (priority 1979, dated 1982).

Where only a bound is given, the exact number is not on record here.

What all share (type): cell-based
Assay [1] concerns Escherichia coli NIHJ JC-2. Description: MIC, agar medium containing the compound. The settings on record: bacterium No. 1, 37° C., 4 hours. As to the method:
(§1) In order to test antifungal and bactericidal activity of halo-salicylanilide obtained in above mentioned Examples, following bacteria and fungi are employed.
No. 1 Escherichia coli NIHJ JC-2
(§2) Bacteria No. 1 to No. 4 are respectively cultured in Hart Infusion bouillon medium at 37° C. for 20 hours and resulting medium liquids are employed for said test. Fungi No. 5 to No. 7 are respectively cultured in Sabouraud agar medium and 10^6 cell/ml of cell dispersing liquids obtained from said medium are employed for said test.

The subject of assay [2] is Pseudomonas aeruqinosa NC-5. Description: MIC, agar medium containing the compound. The following applies: bacterium No. 2, 37° C., 4 hours. As to the method: as §1
No. 2 Pseudomonas aeruqinosa NC-5
as §2

Assay [3] concerns Staphylococcus aureus FDA-209-P. Description: MIC, agar medium containing the compound. The settings on record: bacterium No. 3, 37° C., 4 hours. As to the method: as §1
No. 3 Staphylococcus aureus FDA-209-P
as §2

Assay [4] relates to Bacillus subtilis PCI-219. Description: MIC, agar medium containing the compound. The following applies: bacterium No. 4, 37° C., 4 hours. As to the method: as §1
No. 4 Bacillus subtilis PCI-219
as §2

For assay [5], the system named is Candida albicans ATCC 10259. Description: MIC, Sabouraud agar medium containing the compound. The settings on record: fungus No. 5, 20° C., 14 days. As to the method:
as §1
No. 5 Candida albicans ATCC 10259
as §2

Assay [6] deals with Trichophyton rubrum IFO 9185. Description: MIC, Sabouraud agar medium containing the compound. The settings on record: fungus No. 7, 20° C., 14 days. As to the method:
as §1
No. 7 Trichophyton rubrum IFO 9185
as §2

In assay [7] the test system is Aspergillus flavus IFO 8558. Description: MIC, Sabouraud agar medium containing the compound. The following applies: fungus No. 6, 20° C., 14 days. As to the method: as §1
No. 6 Aspergillus flavus IFO 8558
as §2

As to “5-bromo-2'-methyl-4'-acetylsalicylanilide [compound 11]”, the “MIC (Minimum Inhibitory Concentration)” value in assay [1] is given as greater than 100; in assay [2], greater than 100; in assay [3] it was 0.2; in assay [4] it was 0.4; in assay [5], 100; in assay [6], 0.8.
With “5-chloro-2'-methyl-4'-bromo chloro salicylanilide [compound 7]”, the “MIC (Minimum Inhibitory Concentration)” value is listed as greater than 100 in assay [1]; greater than 100 in assay [2]; 0.8 in assay [3]; 0.8 in assay [4]; 100 in assay [5]; 25 in assay [6].
Turning to `O=C(Nc1ccc(Cl)cc1)c1cc(Br)ccc1O` [Contrast No. 1, reference compound], the “MIC (Minimum Inhibitory Concentration)” value in assay [1] was greater than 100; in assay [2], greater than 100; in assay [5], greater than 100; in assay [7], greater than 100; in assay [6], 50.
For `C=CCCCCCCCCC(=O)O` [Contrast No. 3, undecylenic acid, reference compound], the “MIC (Minimum Inhibitory Concentration)” value is reported as greater than 100 in assay [1]; greater than 100 in assay [3]; greater than 100 in assay [4]; 50 in assay [7]; 50 in assay [6].
For `COC1=CC(=O)C[C@@H](C)[C@]12Oc1c(Cl)c(OC)cc(OC)c1C2=O` [Contrast No. 4, griseo fulvin, reference compound], the “MIC (Minimum Inhibitory Concentration)” value in assay [1] is greater than 100; in assay [3], greater than 100; in assay [4], greater than 100; in assay [7], 25; in assay [6] it was 25.
Turning to `Cc1cc(Cl)ccc1NC(=O)c1cc(Br)ccc1O` [compound 1, 5-bromo-2'-methyl-4'-chloro salicylanilide], the “MIC (Minimum Inhibitory Concentration)” value in assay [1] is given as greater than 100; in assay [2], greater than 100; in assay [3], 0.8; in assay [4], 0.8; in assay [5] it was 50; in assay [7] it was 50. The “MIC (Minimum Inhibitory Concentration)” value in assay [6] is 50.
As for `Cc1cc(Br)ccc1NC(=O)c1cc(Cl)ccc1O` [compound 2, 5-chloro-2'-methyl-4'-bromo salicyl anilide], the “MIC (Minimum Inhibitory Concentration)” value in assay [1] is greater than 100; in assay [2], greater than 100; in assay [3] it was 0.8; in assay [4] it was 0.8; in assay [5], 50; in assay [7], 50. Further, the “MIC (Minimum Inhibitory Concentration)” value in assay [6] was 50.
Consider `CC(=O)Oc1ccc(Cl)cc1C(=O)Nc1ccc(Cl)cc1C` [compound 4, 5-chloro-2'-methyl-4' chloro-acetyl salcylanilide], for which the “MIC (Minimum Inhibitory Concentration)” value in assay [1] is given as greater than 100; in assay [2], greater than 100; in assay [3], 0.1; in assay [4], 0.2; in assay [5], 100; in assay [6] it was 0.2.
For the molecule `CC(=O)Oc1ccc(Cl)cc1C(=O)Nc1ccc(Br)cc1C` [compound 8, 5-chloro-2'-methyl-4'-bromo acetylsalicylanilide], the “MIC (Minimum Inhibitory Concentration)” value is on record as greater than 100 in assay [1]; greater than 100 in assay [2]; 0.8 in assay [3]; 0.8 in assay [4]; 100 in assay [5]; less than 0.8 in assay [6].
Regarding `CC(=O)Oc1ccc(Br)cc1C(=O)Nc1ccc(Cl)cc1C` [compound 9, 5-bromo-2'-methyl-4'-chloro acetylsalicylanilide], the “MIC (Minimum Inhibitory Concentration)” value was greater than 100 in assay [1]; greater than 100 in assay [2]; 0.8 in assay [3]; 0.8 in assay [4]; 100 in assay [5]; 25 in assay [6].
As for `Cc1cc(Br)ccc1NC(=O)c1cc(Br)ccc1O` [compound 10, 5-bromo-2'-methyl-4'-bromo salicylanilide], the “MIC (Minimum Inhibitory Concentration)” value is greater than 100 in assay [1]; greater than 100 in assay [2]; 0.2 in assay [3]; 0.4 in assay [4]; 100 in assay [5]; 0.8 in assay [6].
Take `CC(=O)Oc1ccc(I)cc1C(=O)Nc1ccc(Cl)cc1C` [compound 12, 5-iodo-2'-methyl-4'-chloro acetylsalicylanilide]: the “MIC (Minimum Inhibitory Concentration)” value in assay [1] is recorded as greater than 100; in assay [2], 100; in assay [3], 0.8; in assay [4], 0.8; in assay [5] it was 100; in assay [6], 0.8.
Take `Cc1cc(Cl)ccc1NC(=O)c1cc(F)ccc1O` [compound 14, 5-fluoro-2'-methyl-4'-chloro salicylanilide]: the “MIC (Minimum Inhibitory Concentration)” value in assay [1] was greater than 100; in assay [2], 100; in assay [3], 0.4; in assay [4], 0.4; in assay [5] it was 100; in assay [6], less than 0.8.
`CC(=O)Oc1ccc(F)cc1C(=O)Nc1ccc(Cl)cc1C` [compound 15, 5-fluoro-2'-methyl-4'-chloro acetylsalicylanilide]: the “MIC (Minimum Inhibitory Concentration)” value was greater than 100 in assay [1]; 100 in assay [2]; 0.4 in assay [3]; 0.4 in assay [4]; 100 in assay [5]; less than 0.8 in assay [6].
As to `Cc1cc(Br)ccc1NC(=O)c1cc(F)ccc1O` [compound 16, 5-fluoro-2'-methyl-4'-bromo salicylanilide], the “MIC (Minimum Inhibitory Concentration)” value in assay [1] is given as greater than 100; in assay [2] it was 100; in assay [3], 0.4; in assay [4] it was 0.4; in assay [5] it was 100; in assay [6] it was less than 0.8.
For `CC(=O)Oc1ccc(F)cc1C(=O)Nc1ccc(Br)cc1C` [compound 17, 5-fluoro-2'-methyl-4'-bromo acetylsalicylanilide], the “MIC (Minimum Inhibitory Concentration)” value is greater than 100 in assay [1]; 100 in assay [2]; 0.4 in assay [3]; 0.4 in assay [4]; 100 in assay [5]; less than 0.8 in assay [6].
`Cc1cc(I)ccc1NC(=O)c1cc(F)ccc1O` [compound 18, 5-fluoro-2'-methyl-4'-iodo salicylanilide]: the “MIC (Minimum Inhibitory Concentration)” value was greater than 100 in assay [1]; 100 in assay [2]; 0.4 in assay [3]; 0.4 in assay [4]; 100 in assay [5]; less than 0.8 in assay [6].
For the molecule `CC(=O)Oc1ccc(F)cc1C(=O)Nc1ccc(I)cc1C` [compound 19, 5-fluoro-2'-methyl-4'-iodo acetylsalicylanilide], the “MIC (Minimum Inhibitory Concentration)” value is recorded as greater than 100 in assay [1]; 100 in assay [2]; 0.4 in assay [3]; 0.4 in assay [4]; 100 in assay [5]; less than 0.8 in assay [6].
